{"source": "paper PMC11085208", "about": "“Cyclometalated and NNN Terpyridine Ruthenium Photocatalysts and Their Cytotoxic Activity” (Molecules, 2024)", "key": {"SW1736 cells": {"tested_on": "SW1736 cells", "assay": "MTT cell viability assay, SW1736 cells", "type": "cell-based, human", "conditions": "for ED50 SW1736: MTT test, 72 h, mean ± SD", "source_text": "(§1) Anaplastic thyroid cancer (ATC), while rare, remains one of the deadliest cancers known, showing a median overall survival of 3 months. […] Several therapeutic strategies were thus developed, ranging from more classical methods such as inhibition of cyclin-dependent kinases, to more innovative ones including the use of epigenetic drugs. However, so far, all efforts made in the search for new molecules that can counteract the very high mortality of ATC have often been thwarted by the relative ease with which cancer cells are able to gain drug resistance. For these reasons, the development of new molecules that can increase ATC treatment options is crucial in an effort to extend the life expectancy. A preliminary assessment of the effects of the compounds under consideration involved studying their effectiveness in terms of cell viability. In order to evaluate the antitumor efficacy of ruthenium compounds, they were administered to ATC cells (SW1736 and 8505C) and to a non-tumorigenic thyroid cell line (Nthy-ori 3-1) at increasing doses, and an MTT assay was performed. Once the effects in terms of cell viability were observed, the effective dose 50 (ED50) was calculated by interpolation of the scatter plot curve (dose/effect). The two lines of ATC were similarly sensitive to each of the compounds tested, with the ED50 spanning from 0.3 to 8 µM, calculated at a 72 h time point (Table 2).\n(§2) In this study, we used two different human anaplastic thyroid cancer cell lines (SW1736 and 8505C) and a non-tumorigenic thyroid cell line (Nthy-ori 3-1) that were grown as previously described. All cell lines have been validated by short tandem repeat and tested for being mycoplasma-free. Cells were grown in RPMI 1640 medium (EuroClone, Milan, Italy) supplemented with 10% fetal bovine serum (Gibco Invitrogen, Milan, Italy), 2 mM L-glutamine (EuroClone, Milan, Italy), and […] gentamicin (Gibco Invitrogen, Milan, Italy). Cells were maintained in a humidified incubator (5% CO2, 37 °C).\n(§3) In order to test cell viability, we applied the methylthiazolyldiphenyl-tetrazolium bromide (MTT) assay as previously described. SW1736, 8505C and Nthy-ori 3-1cells (3000 cells/well) were plated onto 96-well plates in 200 μL medium/well and were allowed to attach to the plate for 24 h (t0). Plates were then treated either with DMSO or with each of the different compounds at different concentrations for 72 h. Then, 4 mg/mL MTT (Merck, Darmstadt, Germany) was added to the cell medium, and cells were cultivated for another 4 h in the incubator. The supernatant was removed, 100 μL/well of DMSO (Merck, Darmstadt, Germany) was added, and the absorbance at 570 nm was measured. All experiments were run sixfold and cell viability was expressed as a fold change compared to control. ED50 was calculated by interpolation of the scatter plot obtained by crossing each dose with its own observed effect."}, "8505C cells": {"tested_on": "8505C cells", "assay": "MTT cell viability assay, 8505C cells", "type": "cell-based, human", "conditions": "MTT test, 72 h, mean ± SD", "source_text": "as §1, §2, §3"}, "Nthy-ori 3-1 cells": {"tested_on": "Nthy-ori 3-1 cells", "assay": "MTT cell viability assay, non-tumorigenic Nthy-ori 3-1 cells", "type": "cell-based, human", "conditions": "MTT test, 72 h, nontumorigenic thyroid cells, mean ± SD", "source_text": "as §1, §2, §3"}, "[1]": {"tested_on": "anaplastic thyroid cancer 8505C and SW1736 cell lines", "assay": "MTT cell viability assay, ATC cell lines taken together", "type": "cell-based", "conditions": "72 h", "source_text": "as §1\nIn this study, we used two different human anaplastic thyroid cancer cell lines (SW1736 and 8505C) and a non-tumorigenic thyroid cell line (Nthy-ori 3-1) that were grown as previously described. […]\nIn order to test cell viability, we applied the methylthiazolyldiphenyl-tetrazolium bromide (MTT) assay as previously described. […] The supernatant was removed, 100 μL/well of DMSO (Merck, Darmstadt, Germany) was added, and the absorbance at 570 nm was measured. All experiments were run sixfold and cell viability was expressed as a fold change compared to control. ED50 was calculated by interpolation of the scatter plot obtained by crossing each dose with its own observed effect."}}, "note": "Values joined by “and” are separate entries in the source; they are usually repeats but may differ in a detail not shown here. Identical values can stand only once. “Also recorded” adds a separate entry of the source."}
{"compound": "N.N.[Cl][Pt][Cl]", "note": "[Cisplatin, reference compound]", "values": [{"measurement": "ED50 SW1736", "setting": "SW1736 cells", "result": "6.40 ± 1.54", "unit": "µM"}, {"measurement": "ED50 8505C", "setting": "8505C cells", "result": "5.20 ± 1.82", "unit": "µM"}, {"measurement": "ED50 Nthy-ori 3-1", "setting": "Nthy-ori 3-1 cells", "result": "11.28 ± 0.96", "unit": "µM"}]}
{"compound": "[Ru(η^1-OAc)(NNN-tpy)((R,R)-Skewphos)]OAc [Complex 6]", "values": [{"measurement": "ED50 SW1736", "setting": "SW1736 cells", "result": "1.39 µM and 1.39 ± 0.14 µM"}, {"measurement": "ED50 8505C", "setting": "8505C cells", "result": "1.88 ± 0.21", "unit": "µM"}, {"measurement": "ED50 Nthy-ori 3-1", "setting": "Nthy-ori 3-1 cells", "result": "4.38 ± 0.13", "unit": "µM"}]}
{"compound": "[Ru(η^1-OAc)(NNN-tpy)((S,S)-Skewphos)]OAc [Complex 7]", "values": [{"measurement": "cytotoxicity (ED50) compared to the enantiomer 6", "setting": "SW1736 cells; ED50 0.31 vs 1.39 µM", "result": "four times lower; also recorded: four times higher"}, {"measurement": "ED50 SW1736", "setting": "SW1736 cells", "result": "0.31 µM and 0.31 ± 0.11 µM"}, {"measurement": "ED50 8505C", "setting": "8505C cells", "result": "0.75 ± 0.09", "unit": "µM"}, {"measurement": "ED50 Nthy-ori 3-1", "setting": "Nthy-ori 3-1 cells", "result": "4.85 ± 0.17", "unit": "µM"}]}
{"compound": "[Ru(η^2-OAc)(NC-tpy)((R,R)-Skewphos)] [Complex 4]", "values": [{"measurement": "ED50 SW1736", "setting": "SW1736 cells", "result": "2.18 ± 0.16", "unit": "µM"}, {"measurement": "ED50 8505C", "setting": "8505C cells", "result": "1.95 ± 0.23", "unit": "µM"}, {"measurement": "ED50 Nthy-ori 3-1", "setting": "Nthy-ori 3-1 cells", "result": "3.88 ± 0.31", "unit": "µM"}, {"measurement": "cytotoxicity (in words)", "setting": "[1]", "result": "moderate cytotoxicity"}]}
{"compound": "[Ru(η^2-OAc)(NC-tpy)((S,S)-Skewphos)] [Complex 5]", "values": [{"measurement": "ED50 SW1736", "setting": "SW1736 cells", "result": "2.11 ± 011", "unit": "µM"}, {"measurement": "ED50 8505C", "setting": "8505C cells", "result": "2.06 ± 0.26", "unit": "µM"}, {"measurement": "ED50 Nthy-ori 3-1", "setting": "Nthy-ori 3-1 cells", "result": "4.18 ± 0.09", "unit": "µM"}, {"measurement": "cytotoxicity (in words)", "setting": "[1]", "result": "moderate cytotoxicity"}]}
{"compound": "[Ru(η^2-OAc)(NC-tpy)(dppb)] [Complex 1]", "values": [{"measurement": "ED50 SW1736", "setting": "SW1736 cells", "result": "8.53 ± 0.98", "unit": "µM"}, {"measurement": "ED50 8505C", "setting": "8505C cells", "result": "7.73 ± 1.02", "unit": "µM"}, {"measurement": "ED50 Nthy-ori 3-1", "setting": "Nthy-ori 3-1 cells", "result": "10.59 ± 1.28", "unit": "µM"}, {"measurement": "cytotoxicity (in words)", "setting": "[1]", "result": "moderate cytotoxicity"}]}
{"compound": "[RuCl(NNN-tpy)((R,R)-Skewphos)]Cl [reference compound]", "values": [{"measurement": "ED50 SW1736", "setting": "SW1736 cells", "result": "3.36 ± 0.42", "unit": "µM"}, {"measurement": "ED50 8505C", "setting": "8505C cells", "result": "4.57 ± 0.53", "unit": "µM"}, {"measurement": "ED50 Nthy-ori 3-1", "setting": "Nthy-ori 3-1 cells", "result": "6.91 ± 0.62", "unit": "µM"}]}
{"compound": "[RuCl(NNN-tpy)((S,S)-Skewphos)]PF6 [reference compound]", "values": [{"measurement": "ED50 SW1736", "setting": "SW1736 cells", "result": "2.63 µM and 2.63 ± 0.14 µM"}, {"measurement": "ED50 8505C", "setting": "8505C cells", "result": "2.25 ± 0.17", "unit": "µM"}, {"measurement": "ED50 Nthy-ori 3-1", "setting": "Nthy-ori 3-1 cells", "result": "7.21 ± 0.74", "unit": "µM"}]}
